Assay results from paper PMC6359543, “Efficacy of Azatyrosine-Phenylbutyric Hydroxamides, a Histone Deacetylase Inhibitor, on Chemotherapy-Induced Gastrointestinal Mucositis” (International Journal of Molecular Sciences, 2019).
Like-named read-outs stand apart in the source and are kept apart here.

Legend:
[1] = tested on: Chinese Hamster Ovary cells (CHO-K1); assay: Chromosome aberration assay; assay type: cell-based; conditions: for Number of cells with structural aberrations (%) B: chromosome break / Number of cells with structural aberrations (%) e: exchange / Number of cells with structural aberrations (%) G: chromosome gap / Number of cells with structural aberrations (%) b: chromatid break / Aberrant cell (%) With gap / Aberrant cell (%) Without gap / Number of cells with structural aberrations (%) D: dicentric / Number of cells with structural aberrations (%) g: chromatid gap: Chinese hamster
Method: Chinese hamster ovary epithelial cells (CHO-K1, American Type Culture Collection, Manassas, VA, USA) were cultured in 6-cm dishes at a density of 2 × 10^5 cells/mL for chromosomal abnormality analysis. […] Colemid (0.1 μg/mL) was administered 3 h before trypsinization, followed by treatment with 0.9% sodium citrate at 37 °C and Carnoy’s solution (methanol:acetic acid, 3:1). The cells were stained with 3% Giemsa solution in 0.07 M phosphate buffer (pH 6.8) on glass slides. […] The data were expressed as the total mean number of chromosomal aberrations per treatment ± standard deviation (SD) from three independent experiments.

IEC-6 cells = assay: LPS-induced MAPK/Akt phosphorylation in IEC-6 cells (Western blot); assay type: cell-based, Rat
Method: Figure 6 Western blotting of IEC-6 cells treated with LPS and/or AzP. (A) IEC-6 cells (1 × 10^6 cells/mL) were dispensed on 6 cm dishes and (A) treated with LPS (500 ng/mL) for 10, 20, 30, 60, and 90 min. Data expressed as means ± SD from 3 independent experiments. * p < 0.05 as compared with the resting. (B) Treatment with LPS (500 ng/mL) for 10 min as indicated. Cells were treated with the indicated concentrations of AzP (5, 10, and 20 μM) or vehicle for 30 min before treatment with LPS. Cell lysates were collected for Western blot targeting p-ERK phosphorylation (Thr202/Tyr204, B), MEK phosphorylation ([…], C), and Akt phosphorylation (Ser473, D). Data expressed as means ± SD from 3 independent experiments. ### p < 0.001 as compared with the resting, * p < 0.05, ** p < 0.01 and *** p < 0.001 as compared with the vehicle.
(§1) IEC-6 cells were incubated in different AzP concentrations with/without LPS stimulation for 24 h. The homogenate from cells or tissues was then centrifuged at 14,000× g for 10 min at 4 °C and the supernatant was collected. Protein separation was performed using 10% reducing SDS-PAGE, electrotransferred onto polyvinylidene difluoride (PVDF), and immunoblotted with antibodies against inflammatory proteins as well as β-actin as control. Densitometry was performed using BioLight software V2000.01 (Uhldingen-Mühlhofen, Germany). The optical density of specific protein was normalized to an internal control and expressed as a ratio to control.

male ICR mice = assay: Micronucleus test; conditions: mouse, in vivo
Method: Male ICR mice (n = 5) were administered AzP orally by gavage, at doses of 5, 50, and 500 mg/kg body weight. […] At 24, 48, and 72 h after dosing, 2-μL blood samples were collected from the tail vein onto a slide stained with acridine orange (40 μg/mL). The ratio (%) of polychromatic erythrocytes (PCEs) to total erythrocytes was determined using fluorescence microscopy. In addition, the frequency of micronucleated polychromatic erythrocytes (MNPCEs; ‰) was counted to a total of 1000 erythrocytes or PCEs per animal.

[2] = tested on: Salmonella typhimurium TA1535; assay type: cell-based
[3] = tested on: Salmonella typhimurium TA100; assay type: cell-based
Pan HDAC enzyme = assay: HDAC fluorometric activity assay, pan HDAC; assay type: biochemical
Method: Pan HDAC enzyme (all the known class I HDACs-HDAC1, HDAC2, HDAC3, HDAC8 and class II HDACs 4-7, 9 and 10), HDAC subtype 1, 3 and 4 activity were determined by using the HDAC fluorometric cellular activity assay (Enzo Life Sciences, Farmingdale, NY, USA) according to the manufacturer’s protocol. […] Percent activity for each of the test compounds is calculated as follows:
Activity = {(Sc − B)/(S° − B)} × 100. […] IC50 was then calculated and represented as mean ± SD.

acetyl-histone H3 = assay: Western blot of acetyl-histone H3 in IEC-6 cells; assay type: cell-based, Rat; conditions: AzP 5, 10 and 20 μM, 24 h
Method: Figure 3 In vitro histone deacetylase (HDAC) activity. […] Cell lysates were used for acetyl-histone H3 protein expression by Western blot. Data are expressed as means ± SD from 3 independent experiments. *** p < 0.001 as compared with the resting and ** p < 0.01 as compared with the resting (B).
as §1

CC(C)(C)OC(=O)NC(Cc1ccc(OCc2ccccc2)cn1)C(=O)Nc1ccc(CCCC(=O)NO)cc1 (centres unmarked) [AzP, Azatyrosine-phenylbutyric hydroxamides]
Chromosome aberration assay result [1]: Negative
Number of cells with structural aberrations (%) B: chromosome break ([1]; 3 h, 5 µg/mL): 0.00±0.00%
Number of cells with structural aberrations (%) e: exchange ([1]; 3 h, 5 µg/mL): 0.00±0.00%
Number of cells with structural aberrations (%) B: chromosome break ([1]; 3 h, 10 µg/mL): 0.00±0.00%
Number of cells with structural aberrations (%) G: chromosome gap ([1]; 3 h, 10 µg/mL): 0.00±0.00%
Number of cells with structural aberrations (%) b: chromatid break ([1]; 3 h, 10 µg/mL): 0.00±0.00%
Number of cells with structural aberrations (%) e: exchange ([1]; 3 h, 10 µg/mL): 0.00±0.00%
Number of cells with structural aberrations (%) B: chromosome break ([1]; 3 h, 20 µg/mL): 0.00±0.00%
Number of cells with structural aberrations (%) G: chromosome gap ([1]; 3 h, 20 µg/mL): 0.00±0.00%
Aberrant cell (%) With gap ([1]; 24 h, 5 µg/mL): 4.33±0.58%
Aberrant cell (%) Without gap ([1]; 24 h, 5 µg/mL): 1.67±1.53%
Number of cells with structural aberrations (%) B: chromosome break ([1]; 24 h, 5 µg/mL): 0.00±0.00%
Number of cells with structural aberrations (%) D: dicentric ([1]; 24 h, 5 µg/mL): 0.33±0.58%
Number of cells with structural aberrations (%) G: chromosome gap ([1]; 24 h, 5 µg/mL): 0.33±0.58%
Number of cells with structural aberrations (%) b: chromatid break ([1]; 24 h, 5 µg/mL): 1.00±1.00%
Number of cells with structural aberrations (%) e: exchange ([1]; 24 h, 5 µg/mL): 0.33±0.58%
Number of cells with structural aberrations (%) g: chromatid gap ([1]; 24 h, 5 µg/mL): 2.33±1.53%
Aberrant cell (%) With gap ([1]; 24 h, 10 µg/mL): 4.00±1.00%
Aberrant cell (%) Without gap ([1]; 24 h, 10 µg/mL): 2.67±1.53%
Number of cells with structural aberrations (%) B: chromosome break ([1]; 24 h, 10 µg/mL): 0.00±0.00%
Number of cells with structural aberrations (%) D: dicentric ([1]; 24 h, 10 µg/mL): 0.67±0.58%
Number of cells with structural aberrations (%) G: chromosome gap ([1]; 24 h, 10 µg/mL): 0.67±0.58%
Number of cells with structural aberrations (%) b: chromatid break ([1]; 24 h, 10 µg/mL): 1.33±0.58%
Number of cells with structural aberrations (%) e: exchange ([1]; 24 h, 10 µg/mL): 0.67±0.58%
Number of cells with structural aberrations (%) g: chromatid gap ([1]; 24 h, 10 µg/mL): 1.33±0.58%
Aberrant cell (%) With gap ([1]; 24 h, 20 µg/mL): 4.33±0.58%
Aberrant cell (%) Without gap ([1]; 24 h, 20 µg/mL): 0.67±0.58%
Number of cells with structural aberrations (%) B: chromosome break ([1]; 24 h, 20 µg/mL): 0.33±0.58%
Number of cells with structural aberrations (%) D: dicentric ([1]; 24 h, 20 µg/mL): 0.00±0.00%
Number of cells with structural aberrations (%) G: chromosome gap ([1]; 24 h, 20 µg/mL): 0.33±0.58%
Number of cells with structural aberrations (%) b: chromatid break ([1]; 24 h, 20 µg/mL): 0.00±0.00%
Number of cells with structural aberrations (%) e: exchange ([1]; 24 h, 20 µg/mL): 0.00±0.00%
Number of cells with structural aberrations (%) g: chromatid gap ([1]; 24 h, 20 µg/mL): 3.33±0.58%
LPS-induced ERK activation (phosphorylation) (IEC-6 cells; LPS 500 ng/mL 10 min, AzP 5–20 μM): dose-dependently reverse
LPS-induced Akt phosphorylation (IEC-6 cells; LPS 10 min, AzP 5–20 μM): concentration-dependently reversed
LPS-induced MEK1/2 phosphorylation (IEC-6 cells; LPS 10 min, AzP 5–20 μM): concentration-dependently reversed
JNK phosphorylation (IEC-6 cells; LPS, data not shown): unaffected
p38 phosphorylation (IEC-6 cells; LPS, data not shown): unaffected
IKK phosphorylation (IEC-6 cells; Western blot): unaffected
p65 phosphorylation (IEC-6 cells; Western blot): unaffected
Micronucleus Test result (male ICR mice): Negative
Ames test result, TA1535 (-S9) ([2]; -S9): Negative
Revertant colonies per plate (-S9) TA1535 ([2]; AzP 0.0195 mg/plate): 52±1.2
Revertant colonies per plate (+S9) TA1535 ([2]; AzP 0.0391 mg/plate): 46.5±3.3
Revertant colonies per plate (-S9) TA1535 ([2]; AzP 0.0391 mg/plate): 47.3±9
Revertant colonies per plate (+S9) TA1535 ([2]; AzP 0.0781 mg/plate): 50.5±4.9
Revertant colonies per plate (-S9) TA1535 ([2]; AzP 0.0781 mg/plate): 59±0.6
Revertant colonies per plate (+S9) TA1535 ([2]; AzP 0.156 mg/plate): 52.5±5.2
Revertant colonies per plate (-S9) TA1535 ([2]; AzP 0.156 mg/plate): 61.3±2.2
Revertant colonies per plate (+S9) TA1535 ([2]; AzP 0.3125 mg/plate): 51.7±3.6
Revertant colonies per plate (-S9) TA1535 ([2]; AzP 0.3125 mg/plate): 54.6±7.2
Revertant colonies per plate (+S9) TA1535 ([2]; AzP 0.625 mg/plate): 59.2±3.3
Revertant colonies per plate (-S9) TA1535 ([2]; AzP 0.625 mg/plate): 52.2±13.4
Revertant colonies per plate (+S9) TA1535 ([2]; AzP 1.25 mg/plate): 67±3.2
Revertant colonies per plate (+S9) TA1535 ([2]; AzP 2.5 mg/plate): 58±2.1
Ames test result, TA1535 (|S9) ([2]; second S9 group): Negative
Ames test result, TA100 (-S9) ([3]; -S9): Negative
Revertant colonies per plate (+S9) TA100 ([3]; AzP 0.00245 mg/plate): 106.7±2.2
Revertant colonies per plate (-S9) TA100 ([3]; AzP 0.00245 mg/plate): 81±5
Revertant colonies per plate (+S9) TA100 ([3]; AzP 0.0049 mg/plate): 106±4.4
Revertant colonies per plate (-S9) TA100 ([3]; AzP 0.0049 mg/plate): 78.7±2.7
Revertant colonies per plate (+S9) TA100 ([3]; AzP 0.0098 mg/plate): 107.3±1.3
Revertant colonies per plate (-S9) TA100 ([3]; AzP 0.0098 mg/plate): 81.7±2.7
Revertant colonies per plate (+S9) TA100 ([3]; AzP 0.0195 mg/plate): 110.3±3.8
Revertant colonies per plate (-S9) TA100 ([3]; AzP 0.0195 mg/plate): 89.7±9
Revertant colonies per plate (+S9) TA100 ([3]; AzP 0.0391 mg/plate): 150.3±19.7
Revertant colonies per plate (-S9) TA100 ([3]; AzP 0.0391 mg/plate): 90.8±9.6
Revertant colonies per plate (+S9) TA100 ([3]; AzP 0.0781 mg/plate): 153±3.1
Revertant colonies per plate (-S9) TA100 ([3]; AzP 0.0781 mg/plate): 88.7±1.2
Revertant colonies per plate (+S9) TA100 ([3]; AzP 0.156 mg/plate): 104±8
Revertant colonies per plate (+S9) TA100 ([3]; AzP 0.3125 mg/plate): 92.2±5.2
Ames test result, TA100 (|S9) ([3]; second S9 group): Negative
IC50 (Pan HDAC enzyme): 1650 ± 103 nM
histone acetylation (acetyl-histone H3, Western blot) (acetyl-histone H3): elevated histone acetylation
